Measured values published in US12194033B2, “Glycine receptor modulators and methods of use” (University of Pittsburgh—Of the Commonwealth System of …, priority 2017, dated 2025).
Changes are numbered by the printed parent chain.

Tests used:
[1] = target: T1, human α3GlyR (Homo sapiens, UniProt O75311); assay: In vitro functional electrophysiology in Xenopus laevis oocytes; type: cell-based
T1 construct: expressed in transfected cells; host or cells: Xenopus laevis oocytes
T1 sequence (O75311 34-464): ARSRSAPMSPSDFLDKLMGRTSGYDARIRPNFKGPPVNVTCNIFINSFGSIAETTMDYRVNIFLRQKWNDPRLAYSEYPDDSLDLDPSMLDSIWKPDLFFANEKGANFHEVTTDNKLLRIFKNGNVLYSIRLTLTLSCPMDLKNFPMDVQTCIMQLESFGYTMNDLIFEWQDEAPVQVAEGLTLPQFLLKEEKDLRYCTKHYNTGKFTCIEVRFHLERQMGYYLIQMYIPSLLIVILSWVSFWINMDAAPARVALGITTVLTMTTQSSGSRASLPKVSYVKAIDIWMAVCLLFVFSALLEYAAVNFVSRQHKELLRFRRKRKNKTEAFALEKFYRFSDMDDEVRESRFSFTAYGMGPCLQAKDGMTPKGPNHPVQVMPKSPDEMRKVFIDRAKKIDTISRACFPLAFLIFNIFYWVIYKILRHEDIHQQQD
Protocol: I/Io is calculated as the ratio of the current measured in the presence (I) and absence (Io) of compound 1 or THC at the indicated concentrations. Error bars designate the standard error of the mean (n≥4).
FIGS. 2A and 2B are bar graphs showing the effect of compound 1 on modulation of human glycine receptor subtypes (α1GlyR, α3GlyR, α1βGlyR, and α3βGlyR) expressed in Xenopus laevis oocytes activated by 2% (FIG. 2A) and 20% (FIG. 2B) maximal effective concentration of glycine. I/Io was calculated as the ratio of the current measured in the presence (I) and absence (Io) of 10 μM compound 1. Error bars designate the standard error of the mean (n≥4).
The compounds disclosed in Table 1 were assessed for in vitro modulation of human GlyRs. […] The assessed compounds were compounds 1 (3A), 2 (3B), 3 (3C), 4 (3D), 5 (3E), 6 (3F), 7 (3G), and 8 (3H). I/Io was calculated as the ratio of the current measured in the presence (I) and absence (Io) of 10 μM of the indicated compound. […]
MJPY1 potentiates α3GlyR through binding to the THC-binding site near S296 in the transmembrane domain (TMD). […] Data were recorded at EC2 agonist for the indicated channels and are reported as the ratio of currents in the presence (I) and absence (Io) of 10 μM compound 1 (MJPY1). […]

[2] = target: T2, S296A mutation in α3GlyR (Homo sapiens, UniProt O75311, S329A); assay: Electrophysiology on Xenopus laevis oocytes, S296A mutant; type: cell-based; details: EC2 agonist, 10 μM compound
T2 construct: expressed in transfected cells; host or cells: Xenopus laevis oocytes
T2 sequence (O75311 34-464 S329A): T1 sequence (O75311 34-464) with S296A
Protocol: MJPY1 potentiates α3GlyR through binding to the THC-binding site near S296 in the transmembrane domain (TMD). Like α3GlyR, but unlike ELIC, the chimera ELIC-α3GlyR containing the α3GlyR TMD is potentiated by MJPY1. The S296A mutation in α3GlyR abolishes compound 1 (MJPY1)'s potentiation. Data were recorded at EC2 agonist for the indicated channels and are reported as the ratio of currents in the presence (I) and absence (Io) of 10 μM compound 1 (MJPY1). Error bars represent SEM (n≥4 oocytes).

[3] = target: T3, CB1 (Homo sapiens, UniProt P21554); assay: PRESTO-TANGO functional assay CB1; type: cell-based; details: against positive controls, n=3
T3 construct: expressed in transfected cells
T3 sequence (P21554 whole entry): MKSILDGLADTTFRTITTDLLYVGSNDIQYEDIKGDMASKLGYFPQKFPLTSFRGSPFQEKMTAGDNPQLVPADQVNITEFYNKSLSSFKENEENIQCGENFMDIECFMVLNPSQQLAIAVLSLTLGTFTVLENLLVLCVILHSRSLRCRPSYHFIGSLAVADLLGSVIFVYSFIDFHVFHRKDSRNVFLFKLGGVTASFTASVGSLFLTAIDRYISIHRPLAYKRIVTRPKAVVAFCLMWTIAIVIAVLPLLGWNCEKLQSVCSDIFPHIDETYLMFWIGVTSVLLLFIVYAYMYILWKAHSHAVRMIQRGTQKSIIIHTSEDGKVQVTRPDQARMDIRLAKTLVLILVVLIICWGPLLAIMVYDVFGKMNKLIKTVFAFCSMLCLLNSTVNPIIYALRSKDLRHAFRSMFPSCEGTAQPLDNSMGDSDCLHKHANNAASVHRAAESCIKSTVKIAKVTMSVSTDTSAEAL
Protocol: (§1) The specificity of compound 1 (MJPY1) to act only on glycine receptors was determined. No cross reactivity with other commonly known receptors was detected (FIG. 16 and Table 2). […] Activity is reported in relative luminescence units (RLU) as mean and SEM (n=3).

[4] = target: T4, CB2 (Homo sapiens, UniProt P34972); assay: PRESTO-TANGO functional assay CB2; type: cell-based; details: against positive controls, n=3
T4 construct: expressed in transfected cells
T4 sequence (P34972 whole entry): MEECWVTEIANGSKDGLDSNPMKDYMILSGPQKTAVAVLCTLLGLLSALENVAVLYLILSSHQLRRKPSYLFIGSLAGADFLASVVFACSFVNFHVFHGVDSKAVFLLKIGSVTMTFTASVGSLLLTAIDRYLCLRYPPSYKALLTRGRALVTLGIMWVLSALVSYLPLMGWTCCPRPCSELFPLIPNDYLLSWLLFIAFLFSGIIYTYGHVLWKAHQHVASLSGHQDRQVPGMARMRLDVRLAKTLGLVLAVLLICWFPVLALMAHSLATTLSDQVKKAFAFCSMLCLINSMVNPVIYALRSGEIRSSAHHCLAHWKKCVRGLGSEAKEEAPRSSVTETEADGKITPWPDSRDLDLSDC
Protocol: as §1

[5] = target: T5, 5-HT3R (Homo sapiens, UniProt P46098); assay: Radioligand binding assay, off-target profiling; details: 10 M MJPY1, mean, n = 4
T5 sequence (P46098 24-478): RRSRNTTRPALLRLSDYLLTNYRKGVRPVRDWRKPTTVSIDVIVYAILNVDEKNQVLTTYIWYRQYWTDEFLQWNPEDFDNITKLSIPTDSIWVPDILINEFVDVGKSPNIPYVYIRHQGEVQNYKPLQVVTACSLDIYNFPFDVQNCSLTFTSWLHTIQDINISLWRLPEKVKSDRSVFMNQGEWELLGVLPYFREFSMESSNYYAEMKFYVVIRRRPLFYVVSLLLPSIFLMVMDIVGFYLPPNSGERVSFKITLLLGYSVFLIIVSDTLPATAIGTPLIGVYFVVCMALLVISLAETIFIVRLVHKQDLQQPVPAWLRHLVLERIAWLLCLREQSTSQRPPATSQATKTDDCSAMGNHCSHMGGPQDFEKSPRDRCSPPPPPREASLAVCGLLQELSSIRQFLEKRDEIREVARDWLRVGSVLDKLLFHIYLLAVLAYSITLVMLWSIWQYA

[6] = target: DOR (Homo sapiens, UniProt P41143); assay: Radioligand binding assay, off-target profiling; details: 10 M MJPY1, mean, n = 4
DOR, sequence (P41143 whole entry): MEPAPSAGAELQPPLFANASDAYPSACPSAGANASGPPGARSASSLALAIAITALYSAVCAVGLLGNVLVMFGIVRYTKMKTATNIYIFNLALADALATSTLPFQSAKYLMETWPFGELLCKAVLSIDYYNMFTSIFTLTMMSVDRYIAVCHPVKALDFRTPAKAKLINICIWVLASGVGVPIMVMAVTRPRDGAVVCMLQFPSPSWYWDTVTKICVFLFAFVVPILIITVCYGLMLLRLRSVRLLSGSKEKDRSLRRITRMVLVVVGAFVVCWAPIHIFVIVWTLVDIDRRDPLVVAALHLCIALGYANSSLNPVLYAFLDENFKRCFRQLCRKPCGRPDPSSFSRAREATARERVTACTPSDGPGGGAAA

[7] = target: MOR (Homo sapiens, UniProt P35372); assay: Radioligand binding assay, off-target profiling; details: 10 M MJPY1, mean, n = 4
MOR, sequence (P35372 whole entry): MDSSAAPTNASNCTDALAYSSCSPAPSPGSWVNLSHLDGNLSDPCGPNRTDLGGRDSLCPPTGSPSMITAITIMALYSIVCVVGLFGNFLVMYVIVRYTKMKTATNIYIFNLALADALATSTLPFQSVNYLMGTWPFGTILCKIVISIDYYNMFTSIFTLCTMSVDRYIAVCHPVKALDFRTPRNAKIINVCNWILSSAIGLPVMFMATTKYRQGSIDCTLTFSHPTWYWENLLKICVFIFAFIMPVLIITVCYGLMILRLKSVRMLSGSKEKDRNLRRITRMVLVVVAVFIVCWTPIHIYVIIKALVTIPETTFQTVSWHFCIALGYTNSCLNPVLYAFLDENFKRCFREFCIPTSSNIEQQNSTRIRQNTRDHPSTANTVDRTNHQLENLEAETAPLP

[8] = target: hERG (Homo sapiens, UniProt Q12809); assay: Radioligand binding assay, off-target profiling; details: 10 µM MJPY1, mean, n = 4
hERG, sequence (Q12809 whole entry): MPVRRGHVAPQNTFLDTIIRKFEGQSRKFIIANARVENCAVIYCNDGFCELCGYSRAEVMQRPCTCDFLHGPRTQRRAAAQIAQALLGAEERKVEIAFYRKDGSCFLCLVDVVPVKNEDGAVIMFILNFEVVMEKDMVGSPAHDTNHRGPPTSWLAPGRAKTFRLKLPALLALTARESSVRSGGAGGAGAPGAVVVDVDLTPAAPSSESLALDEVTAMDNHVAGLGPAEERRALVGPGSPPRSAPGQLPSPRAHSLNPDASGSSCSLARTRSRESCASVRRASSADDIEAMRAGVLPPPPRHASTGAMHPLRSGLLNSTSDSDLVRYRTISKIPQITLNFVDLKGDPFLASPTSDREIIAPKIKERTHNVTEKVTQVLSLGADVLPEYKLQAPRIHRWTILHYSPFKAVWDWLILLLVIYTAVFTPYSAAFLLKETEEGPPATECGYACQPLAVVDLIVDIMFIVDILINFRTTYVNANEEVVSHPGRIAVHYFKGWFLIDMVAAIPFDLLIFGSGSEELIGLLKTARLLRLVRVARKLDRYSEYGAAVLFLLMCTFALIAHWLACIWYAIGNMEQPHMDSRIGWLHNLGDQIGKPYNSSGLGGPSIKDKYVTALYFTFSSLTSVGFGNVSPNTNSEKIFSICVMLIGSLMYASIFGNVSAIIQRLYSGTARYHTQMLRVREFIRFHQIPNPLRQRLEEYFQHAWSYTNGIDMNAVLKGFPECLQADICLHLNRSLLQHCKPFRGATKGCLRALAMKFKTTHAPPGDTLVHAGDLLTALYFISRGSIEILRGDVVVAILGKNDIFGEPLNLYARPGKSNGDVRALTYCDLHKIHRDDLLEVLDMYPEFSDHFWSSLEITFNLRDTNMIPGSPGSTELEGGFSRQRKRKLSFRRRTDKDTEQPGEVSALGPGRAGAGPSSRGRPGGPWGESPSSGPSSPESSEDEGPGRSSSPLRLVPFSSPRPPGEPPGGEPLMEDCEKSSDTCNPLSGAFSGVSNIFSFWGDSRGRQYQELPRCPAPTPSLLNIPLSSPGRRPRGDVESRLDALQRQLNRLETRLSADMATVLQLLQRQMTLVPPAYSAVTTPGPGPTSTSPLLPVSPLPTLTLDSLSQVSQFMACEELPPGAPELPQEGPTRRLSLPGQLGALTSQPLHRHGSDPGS

With NC(=O)c1cccc(CNC(=O)c2ccc3c4c(cccc24)CC3)c1 [compound 1, N-[(3-carbamoylphenyl)-methyl]-1,2-dihydroacenaphthylene-5-carboxamide] the “potentiation of α3GlyR (I/Io)” value ([1]; EC2 agonist, 10 μM compound) was “potentiates”, the “modulation of human GlyRs (I/Io)” value ([1]; Xenopus laevis oocytes, 2% maximal effective concentration of glycine) was “modulated” and the “potentiation of α3GlyR S296A (I/Io)” value [2] was “abolishes”. For the same compound, the “agonist or antagonist activity on CB1 (RLU)” value [3] was “no agonist (top) or antagonist (bottom) activity”, the “agonist or antagonist activity on CB2 (RLU)” value [4] was “no agonist (top) or antagonist (bottom) activity” and the “% Inhibition 5-HT3R” value [5] was −5.7%. The “% Inhibition DOR” value [6] was 7.1%, the “% Inhibition MOR” value [7] was 20.6% and the inhibition at 10 µM [8] was -19.5%.
